# Measured values: ChEMBL document CHEMBL6083293, “Novel Benzimidazole Derivatives as Potent Inhibitors of Microsomal Prostaglandin E2 Synthase 1 for the Potential Treatment of Inflammation, Pain, and Fever” (J Med Chem, 2024)
# Calls of active or inactive are those of the source. The rule behind the calls is not given here.
# Assays:
# [1] = Metabolic stability in human liver microsome assessed as half life; format: ADME; details: liver microsomes
# [2] = Metabolic stability in guinea pig liver microsome assessed as half life; format: ADME, Cavia porcellus; details: liver microsomes
# [3] = Metabolic stability in human liver microsome assessed as intrinsic clearance; format: ADME; details: liver microsomes, read-out: CLH
# [4] = Metabolic stability in guinea pig liver microsome assessed as intrinsic clearance; format: ADME, Cavia porcellus; details: liver microsomes, read-out: CLH
# [5] = Clearance in guinea pig at 2 mg/kg, iv; format: ADME, organism-based, Cavia porcellus; details: in vivo
# [6] = Volume of distribution at steady state in guinea pig at 2 mg/kg, iv; format: ADME, organism-based, Cavia porcellus; details: in vivo, read-out: Vdss
# [7] = Half life in guinea pig at 2 mg/kg, iv; format: ADME, organism-based, Cavia porcellus; details: in vivo
# [8] = Initial plasma concentration in guinea pig at 2 mg/kg, iv; format: ADME, organism-based, Cavia porcellus
# [9] = Oral bioavailability in guinea pig at 20 mg/kg; format: ADME, organism-based, Cavia porcellus; details: in vivo
# [10] = Half life in guinea pig at 20 mg/kg, po; format: ADME, organism-based, Cavia porcellus; details: in vivo
# [11] = Cmax in guinea pig at 20 mg/kg, po; format: ADME, organism-based, Cavia porcellus; details: in vivo
# [12] = AUC (0 to infinity) in guinea pig at 20 mg/kg, po; format: ADME, organism-based, Cavia porcellus; details: in vivo
# [13] = molecular target: T1, Prostaglandin E synthase (Homo sapiens) (UniProt O14684); assay: Inhibition of mPGES-1 in human M1-like MDM cells assessed as reduction in PGE2 formation at 10 uM; format: cell-based
# T1 sequence (whole entry): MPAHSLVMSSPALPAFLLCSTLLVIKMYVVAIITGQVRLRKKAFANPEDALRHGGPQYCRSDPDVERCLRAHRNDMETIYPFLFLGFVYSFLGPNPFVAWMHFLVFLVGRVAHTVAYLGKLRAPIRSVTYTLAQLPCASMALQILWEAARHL
# [14] = molecular target: T1, Prostaglandin E synthase (Homo sapiens); assay: Inhibition of mPGES-1 in human M1-like MDM cells assessed as reduction in TXB2 formation at 10 uM; format: cell-based
# [15] = tested on: Cavia porcellus; assay: Anti-inflammatory activity against carrageenan-induced paw edema in guinea pig assessed as reduction in paw swelling at 10 mg/kg, po measured at 240 mins; format: functional, organism-based
# [16] = tested on: Cavia porcellus; assay: Anti-hyperalgesic activity against carrageenan-induced guinea pig mechanical hyperalgesia model at 10 mg/kg, po; format: functional, organism-based
# [17] = Hepatotoxicity in guinea pig assessed as increase in ALP level in plasma at 10 mg/kg, po; format: toxicity, organism-based, Cavia porcellus; details: in vivo
# [18] = Toxicity in guinea pig assessed as increase in sinusoidal capillary diameter at 10 mg/kg, po; format: organism-based, Cavia porcellus; details: in vivo
# [19] = Toxicity in guinea pig assessed as increase in number of vacuolated hepatocytes at 10 mg/kg, po; format: organism-based, Cavia porcellus; details: in vivo
# [20] = molecular target: T2, Prostaglandin G/H synthase 1 (Ovis aries) (UniProt P05979); assay: Inhibition of ovine COX-1 at 1 uM using arachidonic acid as substrate preincubated for 6 mins followed by substrate addition and measured after 10 mins by RP-HPLC analysis; details: time 16.0 min
# T2 sequence (whole entry): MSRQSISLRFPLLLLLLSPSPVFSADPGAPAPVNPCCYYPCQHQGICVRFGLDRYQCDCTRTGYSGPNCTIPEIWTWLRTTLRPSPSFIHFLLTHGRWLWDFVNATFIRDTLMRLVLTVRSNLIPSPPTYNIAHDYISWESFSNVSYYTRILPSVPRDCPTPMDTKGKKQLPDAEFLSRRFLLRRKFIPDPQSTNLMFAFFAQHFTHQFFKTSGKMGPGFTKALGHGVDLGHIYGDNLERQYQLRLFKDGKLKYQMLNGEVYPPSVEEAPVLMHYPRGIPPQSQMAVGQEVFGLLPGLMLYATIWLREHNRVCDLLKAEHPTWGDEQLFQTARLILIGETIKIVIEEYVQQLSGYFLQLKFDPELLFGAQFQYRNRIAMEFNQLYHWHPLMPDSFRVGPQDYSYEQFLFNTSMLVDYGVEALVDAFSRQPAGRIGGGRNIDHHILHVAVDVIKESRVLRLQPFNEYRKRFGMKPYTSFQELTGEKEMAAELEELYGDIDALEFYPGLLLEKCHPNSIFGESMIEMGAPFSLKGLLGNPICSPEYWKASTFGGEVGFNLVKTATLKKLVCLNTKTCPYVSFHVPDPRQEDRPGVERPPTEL
# [21] = molecular target: T3, Prostaglandin G/H synthase 2 (Homo sapiens) (UniProt P35354); assay: Inhibition of human recombinant COX-2 at 1 uM using arachidonic acid as substrate preincubated for 6 mins followed by substrate addition and measured after 10 mins by RP-HPLC analysis; details: time 16.0 min
# T3 sequence (whole entry): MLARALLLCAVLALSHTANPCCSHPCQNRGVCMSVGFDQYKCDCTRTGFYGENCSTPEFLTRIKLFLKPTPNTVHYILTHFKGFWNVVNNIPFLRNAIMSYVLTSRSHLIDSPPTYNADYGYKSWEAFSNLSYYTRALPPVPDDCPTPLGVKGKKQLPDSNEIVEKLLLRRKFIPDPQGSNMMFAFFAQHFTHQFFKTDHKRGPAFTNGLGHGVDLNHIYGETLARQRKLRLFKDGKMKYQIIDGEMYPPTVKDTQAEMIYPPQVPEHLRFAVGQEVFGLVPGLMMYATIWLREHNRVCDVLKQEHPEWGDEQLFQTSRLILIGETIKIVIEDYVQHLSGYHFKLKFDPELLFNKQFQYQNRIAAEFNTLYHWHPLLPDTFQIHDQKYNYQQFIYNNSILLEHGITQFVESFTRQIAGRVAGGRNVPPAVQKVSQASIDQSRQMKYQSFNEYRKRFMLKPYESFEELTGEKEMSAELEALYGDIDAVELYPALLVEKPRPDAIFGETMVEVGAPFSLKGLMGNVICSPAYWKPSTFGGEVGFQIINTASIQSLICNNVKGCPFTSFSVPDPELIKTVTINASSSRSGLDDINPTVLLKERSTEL
# [22] = molecular target: T4, Polyunsaturated fatty acid 5-lipoxygenase (Homo sapiens) (UniProt P09917); assay: Inhibition of human recombinant 5-LOX expressed in Escherichia coli BL21(DE3) at 1 uM using arachidonic acid as substrate preincubated with compound for 15 mins followed by substrate and CaCl2 addition measured after 10 mins by RP-HPLC analysis; details: time 25.0 min
# T4 sequence (whole entry): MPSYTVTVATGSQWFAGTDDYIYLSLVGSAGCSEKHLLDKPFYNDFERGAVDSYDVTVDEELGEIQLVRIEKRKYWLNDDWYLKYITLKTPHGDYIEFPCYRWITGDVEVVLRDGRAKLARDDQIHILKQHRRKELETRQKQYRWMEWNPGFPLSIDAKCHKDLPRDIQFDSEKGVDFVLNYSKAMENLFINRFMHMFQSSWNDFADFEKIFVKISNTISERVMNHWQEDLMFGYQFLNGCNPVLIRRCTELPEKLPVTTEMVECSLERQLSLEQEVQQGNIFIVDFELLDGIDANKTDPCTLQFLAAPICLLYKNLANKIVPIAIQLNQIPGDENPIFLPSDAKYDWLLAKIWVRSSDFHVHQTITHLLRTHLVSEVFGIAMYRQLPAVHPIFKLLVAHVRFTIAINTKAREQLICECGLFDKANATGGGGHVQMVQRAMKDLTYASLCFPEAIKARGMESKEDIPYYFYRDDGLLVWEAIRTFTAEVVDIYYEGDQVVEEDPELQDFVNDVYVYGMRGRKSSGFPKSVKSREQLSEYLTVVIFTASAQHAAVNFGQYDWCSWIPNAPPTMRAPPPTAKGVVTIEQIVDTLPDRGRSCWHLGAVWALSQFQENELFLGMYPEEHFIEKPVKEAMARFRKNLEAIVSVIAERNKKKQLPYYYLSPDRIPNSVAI
# [23] = molecular target: T5, Arachidonate 5-lipoxygenase-activating protein (Homo sapiens) (UniProt P20292); assay: Inhibition of FLAP in calcium ionophore A23187-stimulated human Neutrophil cells at 1 uM preincubated for 15 mins followed by calcium ionophore A23187 stimulation for 10 mins by RP-HPLC analysis; format: cell-based; details: time 25.0 min
# T5 sequence (whole entry): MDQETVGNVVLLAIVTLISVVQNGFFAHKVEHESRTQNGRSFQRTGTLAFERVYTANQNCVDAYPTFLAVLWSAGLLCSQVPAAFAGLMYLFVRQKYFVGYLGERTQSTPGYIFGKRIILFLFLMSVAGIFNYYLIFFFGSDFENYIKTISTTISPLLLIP
# [24] = Cytotoxicity against human MDM cells assessed as LDH release at 3 uM measured after 3 hrs; format: toxicity, cell-based
# [25] = Cytotoxicity against human MDM cells assessed as metabolic activity at 3 uM measured after 48 hrs by MTT assay; format: toxicity, cell-based
# [26] = tested on: Cavia porcellus; assay: Anti-inflammatory activity against carrageenan-induced paw edema in guinea pig assessed as inhibition of edema formation at 30 mg/kg, po measured at 120 mins; format: functional, organism-based
# [27] = tested on: Cavia porcellus; assay: Anti-inflammatory activity against carrageenan-induced paw edema in guinea pig assessed as inhibition of edema formation at 30 mg/kg, po measured at 240 mins; format: functional; details: 4 h
# [28] = tested on: Cavia porcellus; assay: Anti-hyperalgesic activity against carrageenan-induced guinea pig mechanical hyperalgesia model at 30 mg/kg, po; format: functional, organism-based
# [29] = tested on: Cavia porcellus; assay: Anti-pyretic activity against LPS-induced guinea pig pyresis model assessed as increase in rectal temperature at 30 mg/kg, po measured at 180 to 240 mins; format: functional, organism-based; details: time 180-240 min
# [30] = Hepatotoxicity in guinea pig assessed as increase in ALP level in plasma at 30 mg/kg, po; format: toxicity, organism-based, Cavia porcellus; details: in vivo
# [31] = Hepatotoxicity in guinea pig assessed as effect on ALT level in plasma at 30 mg/kg, po; format: toxicity, organism-based, Cavia porcellus; details: in vivo
# [32] = Hepatotoxicity in guinea pig assessed as effect on AST level in plasma at 30 mg/kg, po; format: toxicity, organism-based, Cavia porcellus; details: in vivo
# [33] = Toxicity in guinea pig assessed as increase in sinusoidal capillary diameter at 30 mg/kg, po; format: organism-based, Cavia porcellus; details: in vivo
# [34] = Toxicity in guinea pig assessed as increase in number of vacuolated hepatocytes at 30 mg/kg, po; format: organism-based, Cavia porcellus; details: in vivo
Compound,half-life [1] [min],half-life [2] [min],microsomal CLint [3] [µL/min/mg],microsomal CLint [4] [µL/min/mg],clearance [5] [mL/min/kg],Vd [6] [L/kg],half-life [7] [min],C0 [8] [ng/mL],bioavailability [9] [%],half-life [10] [min],Cmax [11] [ng/mL],AUC(0-inf) [12] [ng·h/mL],other results
CC(C)(C(=O)NCc1ccc(Cl)c(C(=O)Nc2ccc(-c3nc4cc(C(F)(F)F)ccc4[nH]3)cc2)c1)C(F)(F)F,6.8,103,203,13.9,,,,,,,,,
CC(C)(C)C(=O)NCc1ccc(Cl)c(C(=O)Nc2ccc(-c3nc4cc(C(F)(F)F)ccc4[nH]3)cc2)c1,5.6,4.6,247,302,,,,,,,,,
O=C(Nc1ccc(-c2nc3cc(C(F)(F)F)ccc3[nH]2)cc1)c1cc(CNC(=O)C2(C(F)(F)F)CCC2)ccc1Cl,4.4,8.5,315,163,87.7,10,336,733,16,342,49,620,
CC(C)(C(=O)NCc1ccc(Cl)c(C(=O)Nc2ccc(Cc3nc4cc(C(F)(F)F)ccc4[nH]3)cc2)c1)C(F)(F)F,51.2,49.3,27.4,28.2,,,,,,,,,
COc1ccc2c(c1)c(CC(=O)O)c(C)n2C(=O)c1ccc(Cl)cc1 [INDOMETHACIN],,,,,,,,,,,,,inhibition [13]: inactive; inhibition [14]: inactive; Activity [15]: Active; Activity [16]: Active; Activity [17]: Toxic; Activity [18]: Non-toxic; Activity [19]: Non-toxic
O=C(Nc1ccc(-c2nc3cc(C(F)(F)F)ccc3[nH]2)cc1)c1cc(CNC(=O)C2(C(F)(F)F)CC2)ccc1Cl,30.7,185,45.2,< 7.5,14.9,4.1,234,878,61,288,1370,13800,inhibition [20]: Active; inhibition [21]: Active; inhibition [22]: Active; inhibition [23]: Active; Activity [24]: Non-toxic; Activity [25]: Non-toxic; Activity [26]: Active; inhibition in vivo at 30 mg/kg [27]: 60%; Activity [28]: Active; Activity [29]: Active; Activity [30]: Non-toxic; Activity [31]: Non-toxic; Activity [32]: Non-toxic; Activity [33]: Mild_effect; Activity [34]: Mild_effect
